Some test systems named below: A549 NSCLC; BT-549 breast; DU-145 prostate; EKVX NSCLC; HCT-116 colon; NCI-H226 lung; NCI-H522 lung; SF-295 CNS; SK-MEL-5 melanoma; SW-620 colon.
Holding throughout (assay): inhibition of tumour cell growth, NCI panel, 48 h

“And” between values parts separate entries of the source, which are not always exact repeats. Equal values may be shown once.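 Values below derive from 48-hour exposures of cells grown in 96-well plates, with endpoints linearly interpolated between the two concentrations bracketing the appropriate inhibition level. Abbreviation: GI50, concentration required for 50% inhibition of growth. TGI is the concentration that stops growth completely.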

With `O=C1c2ccccc2-c2c1c1c(O)cccc1n2CCCc1ccccc1`, the GI50 is 9.61 µM in the assay on A549 NSCLC; 16 µM with BT-549 breast; 28.1 µM with DU-145 prostate; 10.3 µM in the assay with EKVX NSCLC; 5.91 µM in the assay with HCT-116 colon; 11.2 µM in the assay on NCI-H226 lung. Moreover, the GI50 was 3.85 µM in the assay with NCI-H522 lung, 7.33 µM in the assay with SF-295 CNS, 12.6 µM with SK-MEL-5 melanoma and 51.9 µM in the assay on SW-620 colon. Besides, the TGI was above 100 µM with A549 NSCLC; 63.6 µM in the assay on BT-549 breast; above 100 µM in the assay on DU-145 prostate; 98.3 µM in the assay on EKVX NSCLC; above 100 µM in the assay on HCT-116 colon; 50.9 µM in the assay on NCI-H226 lung. Moreover, the TGI in the assay with NCI-H522 lung was 38.5 µM; with SF-295 CNS it was above 100 µM; with SK-MEL-5 melanoma, 27.8 µM; with SW-620 colon, above 100 µM.

On to `COc1ccc(-c2nnc(Nc3nc(O)c(C4=c5cc(OC(F)(F)F)ccc5=NC4=O)s3)o2)cc1`, for which the GI50 is 17.2 µM in the assay on A549 NSCLC; 19.7 µM in the assay on BT-549 breast; 23.4 µM in the assay with DU-145 prostate; 31.6 µM in the assay on EKVX NSCLC; 12.5 µM with HCT-116 colon; 17.4 µM in the assay with NCI-H226 lung. Moreover, the GI50 was 32.4 µM in the assay on NCI-H522 lung, 6.12 µM with SF-295 CNS, 17.7 µM in the assay on SK-MEL-5 melanoma and 38.2 µM in the assay on SW-620 colon. Besides, the TGI in the assay with A549 NSCLC stood at 81.4 µM; with BT-549 breast it was 37.7 µM; in the assay with DU-145 prostate, 87.1 µM; in the assay on EKVX NSCLC it was 71.7 µM; in the assay with HCT-116 colon, 25.4 µM; in the assay on NCI-H226 lung it was 38.1 µM. Further, the TGI was above 100 µM in the assay with NCI-H522 lung, above 100 µM in the assay on SF-295 CNS, 42.9 µM with SK-MEL-5 melanoma and above 100 µM in the assay on SW-620 colon.

As for `O=C(N/N=C/c1ccncc1)c1ccc(C(F)(F)F)nc1Nc1cccc(C(F)(F)F)c1`, the GI50 was 3.12 µM in the assay with A549 NSCLC; 0.613 µM in the assay on BT-549 breast; 2.59 µM with DU-145 prostate; 1.39 µM with EKVX NSCLC; 1.4 µM in the assay on HCT-116 colon; 2.65 µM with NCI-H226 lung. For the same molecule, the GI50 was 2.7 µM in the assay on NCI-H522 lung, 1.37 µM in the assay on SF-295 CNS, 2.81 µM in the assay on SK-MEL-5 melanoma and 2.66 µM in the assay on SW-620 colon. Also, the TGI in the assay on A549 NSCLC stood at 10.9 µM; in the assay on BT-549 breast it was 3.59 µM; with DU-145 prostate, 6.83 µM; in the assay on EKVX NSCLC, 8.87 µM; in the assay with HCT-116 colon, 10.4 µM; in the assay on NCI-H226 lung, 11 µM. Moreover, the TGI in the assay with NCI-H522 lung was found to be 10.7 µM; in the assay with SF-295 CNS, 3.91 µM; in the assay on SK-MEL-5 melanoma, 11.7 µM; in the assay on SW-620 colon it was 12.8 µM.

On to `O=C(NC1CCNCC1)c1[nH]ncc1NC(=O)c1c(Cl)cccc1Cl`, for which the GI50 was 0.637 µM and 0.86 µM with A549 NSCLC; 0.588 µM and 0.471 µM in the assay with BT-549 breast; 0.417 µM and 0.472 µM in the assay with DU-145 prostate; 0.998 µM in the assay with EKVX NSCLC; 0.315 µM and 0.285 µM in the assay with HCT-116 colon; 0.346 µM and 0.325 µM in the assay with NCI-H226 lung. Besides, the GI50 was 0.387 µM and 0.28 µM in the assay with NCI-H522 lung; 1.13 µM and 1.01 µM with SF-295 CNS; 2.44 µM and 0.961 µM in the assay on SK-MEL-5 melanoma; 0.365 µM and 0.425 µM with SW-620 colon. In addition, the TGI with A549 NSCLC was above 100 µM; with BT-549 breast it was 7.89 µM; in the assay on DU-145 prostate, above 23.6 µM; in the assay on EKVX NSCLC it was above 10 µM; in the assay with HCT-116 colon it was above 100 µM; with NCI-H226 lung it was 4.01 µM and 2.32 µM. For the same molecule, the TGI with NCI-H522 lung is 1.94 µM and 2.17 µM; in the assay on SF-295 CNS it was above 51.8 µM; in the assay with SK-MEL-5 melanoma, 7.67 µM and 5.53 µM; in the assay on SW-620 colon, above 10 µM.

With `C=C1C(=O)O[C@H]2[C@H]1CC/C(COC(=O)c1cccc3ccccc13)=C\CC[C@@]1(C)O[C@@H]21`, the GI50 is 2.12 µM with A549 NSCLC; 1.05 µM in the assay with BT-549 breast; 1.5 µM with DU-145 prostate; 1.81 µM in the assay on EKVX NSCLC; 1.23 µM with HCT-116 colon; 1.29 µM with NCI-H226 lung. For the same molecule, the GI50 is 1.66 µM with NCI-H522 lung, 2.47 µM with SF-295 CNS, 1.62 µM in the assay with SK-MEL-5 melanoma and 1.08 µM in the assay on SW-620 colon. The TGI is 5.4 µM in the assay with A549 NSCLC; 2.37 µM with BT-549 breast; 2.86 µM in the assay on DU-145 prostate; 3.94 µM with EKVX NSCLC; 2.53 µM in the assay with HCT-116 colon; 2.83 µM with NCI-H226 lung. Besides, the TGI was 3.22 µM in the assay on NCI-H522 lung, 10.2 µM with SF-295 CNS, 2.98 µM in the assay on SK-MEL-5 melanoma and 2.87 µM in the assay with SW-620 colon.

For `COc1ccc(C2=NNC(c3cc(Cc4ccc(O)c(C5CC(c6ccc(OC)cc6)=NN5)c4)ccc3O)C2)cc1` (stereo not given), the GI50 with A549 NSCLC is 6.84 µM; in the assay with BT-549 breast, 4.66 µM; with DU-145 prostate, 29.8 µM; in the assay on EKVX NSCLC it was 23.3 µM; in the assay on HCT-116 colon, 4.11 µM; with NCI-H226 lung it was 6.08 µM. The GI50 is 3.64 µM in the assay on NCI-H522 lung, 21.2 µM with SF-295 CNS, 1.76 µM in the assay on SK-MEL-5 melanoma and 7.96 µM in the assay on SW-620 colon. Besides, the TGI with A549 NSCLC was above 100 µM; in the assay with BT-549 breast, 51.6 µM; with DU-145 prostate, above 100 µM; in the assay on EKVX NSCLC it was above 100 µM; with HCT-116 colon, 15.9 µM; with NCI-H226 lung it was above 100 µM. Also, the TGI was 23.4 µM with NCI-H522 lung, above 100 µM with SF-295 CNS, 6.4 µM with SK-MEL-5 melanoma and above 100 µM in the assay with SW-620 colon.

With `NS(=O)(=O)c1cccc(-c2cc3ccncc3cc2OCc2ccccc2)c1`, the GI50 in the assay with A549 NSCLC is 10.3 µM; with BT-549 breast, 7.65 µM; with DU-145 prostate, 17.1 µM; in the assay on EKVX NSCLC it was 9.67 µM; with HCT-116 colon, 10.1 µM; with NCI-H226 lung, 9.03 µM. Further, the GI50 in the assay on NCI-H522 lung is 13.5 µM; in the assay with SF-295 CNS it was 6.55 µM; in the assay on SK-MEL-5 melanoma, 4.83 µM; in the assay on SW-620 colon, 9.92 µM. Moreover, the TGI with A549 NSCLC, in the assay with BT-549 breast, in the assay on DU-145 prostate, in the assay with EKVX NSCLC, in the assay on HCT-116 colon and in the assay on NCI-H226 lung was above 25 µM in each case. Besides, the TGI in the assay on NCI-H522 lung is above 25 µM; with SF-295 CNS, above 17.7 µM; in the assay on SK-MEL-5 melanoma, above 15.8 µM; in the assay on SW-620 colon it was above 25 µM.

Take `COc1ccc(Oc2nc(Nc3ccc(N4CCOCC4)cc3)ncc2NC(=O)Nc2cc(OC)cc(OC)c2)cc1`: the GI50 was 1.86 µM in the assay on A549 NSCLC; 1.59 µM in the assay on BT-549 breast; 1.66 µM with DU-145 prostate; 7.56 µM in the assay on EKVX NSCLC; 1.14 µM with HCT-116 colon; 3.84 µM in the assay with NCI-H226 lung. In addition, the GI50 was 3.94 µM in the assay with NCI-H522 lung, 4.19 µM in the assay on SF-295 CNS, 1.11 µM in the assay on SK-MEL-5 melanoma and 3.17 µM in the assay on SW-620 colon. The TGI in the assay on A549 NSCLC is 12.5 µM; in the assay on BT-549 breast it was 7.98 µM; in the assay with DU-145 prostate, 7.59 µM; in the assay with EKVX NSCLC, above 33.3 µM; in the assay on HCT-116 colon, 3.27 µM; in the assay on NCI-H226 lung, 11.8 µM. The TGI with NCI-H522 lung was 21.7 µM; with SF-295 CNS, 12.7 µM; in the assay on SK-MEL-5 melanoma, 3.79 µM; in the assay on SW-620 colon, above 33.3 µM.

As for `O=S1CCN(Cc2ccc(-c3ccc4ncnc(Nc5ccc(OCc6ccccc6)c(F)c5)c4c3)o2)CC1`, the GI50 with A549 NSCLC was 7.55 µM; with BT-549 breast it was 7.88 µM; with DU-145 prostate, 4.56 µM; in the assay on EKVX NSCLC it was 0.212 µM; with HCT-116 colon, 9.96 µM; in the assay on NCI-H226 lung, 5.61 µM. Besides, the GI50 in the assay on NCI-H522 lung was 0.984 µM; with SF-295 CNS, 7.63 µM; with SK-MEL-5 melanoma, 3.44 µM; with SW-620 colon, 10.8 µM. The TGI in the assay on A549 NSCLC was above 25 µM; in the assay with BT-549 breast, above 22.8 µM; with DU-145 prostate it was above 25 µM; in the assay with EKVX NSCLC, above 25 µM; in the assay with HCT-116 colon, above 25 µM; in the assay with NCI-H226 lung it was 19.2 µM. For the same molecule, the TGI in the assay on NCI-H522 lung is above 20.1 µM; in the assay with SF-295 CNS it was above 22.1 µM; in the assay with SK-MEL-5 melanoma it was 7 µM; in the assay with SW-620 colon, above 25 µM.

`CC(=O)Nc1c(I)c(C(=O)O)c(I)c(N(C)C(C)=O)c1I`: the GI50 in the assay on A549 NSCLC, in the assay with BT-549 breast, in the assay on DU-145 prostate, in the assay on EKVX NSCLC, in the assay on HCT-116 colon and with NCI-H226 lung was above 100 µM in each case. For the same molecule, the GI50 in the assay with NCI-H522 lung, in the assay with SF-295 CNS, in the assay with SK-MEL-5 melanoma and with SW-620 colon was above 100 µM throughout. Besides, the TGI with A549 NSCLC, in the assay with BT-549 breast, in the assay with DU-145 prostate, with EKVX NSCLC, with HCT-116 colon and in the assay with NCI-H226 lung was above 100 µM in each case. Further, the TGI with NCI-H522 lung, with SF-295 CNS, in the assay with SK-MEL-5 melanoma and with SW-620 colon was above 100 µM throughout.

As to `COc1cc(-c2ccc(Nc3ccccc3C(=O)O)c(OC)c2)ccc1Nc1ccccc1C(=O)O`, the TGI with A549 NSCLC is above 100 µM; in the assay with BT-549 breast, 57.4 µM; in the assay with DU-145 prostate it was 49.9 µM; with EKVX NSCLC, above 97.4 µM; with HCT-116 colon, 23.6 µM; in the assay with NCI-H226 lung, 60.7 µM. Moreover, the TGI was 66.6 µM with NCI-H522 lung, above 100 µM in the assay with SF-295 CNS, above 100 µM in the assay with SK-MEL-5 melanoma and above 100 µM in the assay on SW-620 colon.

The record behind these values is PubChem BioAssay (NCI).
